Test results taken from the supplement of paper PMC5412046.

Legend:
[1] = test system: SB.mhdgc-1; test: viability at highest tested concentration (MAXR) relative to DMSO; higher = less cytotoxic; settings: SB.mhdgc-1 (hereditary c.1380delA CDH1 gastric cancer)
How it was run: (§1)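 Patient-derived gastric cancer cells, hereditary or sporadic, were plated at 500 cells in 5 μL medium per well of a 1536-well plate and given 23 nL of compound in DMSO by pintool across 11 threefold dilutions. The top concentration was recorded for each compound. After 48 h, CellTiter-Glo was added for 30 min at room temperature and luminescence was read on a ViewLux. Values are viability normalised to DMSO, taken either at the highest concentration or as trapezoidal area under the curve.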

[2] = test system: SB.msgc-1; test: as above; settings: SB.msgc-1 (sporadic gastric cancer)
How it was run: as §1

[3] = test system: SB.mhdgc-1; test: area under the dose-response curve of % viability (trapezoidal, 11 doses) (% viability x log10 concentration); higher = less cytotoxic; settings: SB.mhdgc-1 (hereditary c.1380delA CDH1 gastric cancer)
How it was run: as §1

[4] = test system: SB.msgc-1; test: as above; settings: SB.msgc-1 (sporadic gastric cancer)
How it was run: as §1

## CC(C)C(=O)Nc1ncc(-c2cc(C(F)F)nn2-c2c(Cl)cccc2Cl)s1 [BMS-5] (top concentration 46.0829 µM)
[1]
  viability: 41.3%
[2]
  viability: 34.6%
[3]
  area under the dose-response curve: 459
[4]
  area under the dose-response curve: 514

## CC(C)C[C@H](NC(=O)[C@H](CCc1ccccc1)NC(=O)CN1CCOCC1)C(=O)N[C@@H](Cc1ccccc1)C(=O)N[C@@H](CC(C)C)C(=O)[C@@]1(C)CO1 [Carfilzomib] (top concentration 46.0829 µM)
[1]
  viability: 3.86%
[2]
  viability: 2.2%
[3]
  area under the dose-response curve: 149
[4]
  area under the dose-response curve: 157

## COC(=O)C1=C(C)NC(C)=C(C(=O)OCCN2CCN(C(c3ccccc3)c3ccccc3)CC2)C1c1cccc([N+](=O)[O-])c1.Cl.Cl (stereo unspecified) [Manidipine] (top concentration 46.0829 µM)
[1]
  viability: 115%
[2]
  viability: 91.9%
[3]
  area under the dose-response curve: 588
[4]
  area under the dose-response curve: 484

## CCn1c(=O)c2c(nc(/C=C/c3ccc(OC)c(OC)c3)n2C)n(CC)c1=O [Istradefylline] (top concentration 46.0829 µM)
[1]
  viability: 64.2%
[2]
  viability: 67.9%
[3]
  area under the dose-response curve: 543
[4]
  area under the dose-response curve: 546

## Cc1ccc(NC(=O)c2ccc(CN3CCN(C)CC3)cc2)cc1Nc1nc(-c2cccnc2)cs1 [Masitinib] (top concentration 46.0829 µM)
[1]
  viability: 23.7%
[2]
  viability: 42.1%
[3]
  area under the dose-response curve: 518
[4]
  area under the dose-response curve: 443

## NC/1=N/C(=O)C2=C(N1)[N](C=N2)[C@@H]3C[C@H](O)[C@@H](CO)C3=C [Entecavir] (top concentration 46.0829 µM)
[1]
  viability: 40.3%
[2]
  viability: 58.3%
[3]
  area under the dose-response curve: 512
[4]
  area under the dose-response curve: 494

## COC(=O)[C@H](c1ccccc1Cl)N1CCc2sccc2C1 [Clopidogrel bisulfate] (top concentration 46.0829 µM)
[1]
  viability: 82%
[2]
  viability: 103%
[3]
  area under the dose-response curve: 478
[4]
  area under the dose-response curve: 542

## C=CC[N+]1([C@H]2C[C@H]3[C@@H]4CC[C@H]5C[C@H](O)[C@@H](N6CCOCC6)C[C@]5(C)[C@H]4CC[C@]3(C)[C@H]2OC(C)=O)CCCC1 [Rocuronium bromide] (top concentration 46.0829 µM)
[1]
  viability: 109%
[2]
  viability: 76.2%
[3]
  area under the dose-response curve: 578
[4]
  area under the dose-response curve: 594

## CO[C@H]1O[C@@H]2O[C@@]3(C)CC[C@H]4[C@H](C)CC[C@@H]([C@H]1C)[C@@]24OO3 [Artemether] (top concentration 46.0829 µM)
[1]
  viability: 97.7%
[2]
  viability: 90%
[3]
  area under the dose-response curve: 544
[4]
  area under the dose-response curve: 535

## c1ccc2c(CCNc3ccc(Nc4ccncc4)cc3)c[nH]c2c1 [Serdemetan] (top concentration 46.0829 µM)
[1]
  viability: 7.88%
[2]
  viability: 45.2%
[3]
  area under the dose-response curve: 397
[4]
  area under the dose-response curve: 486

## CCNC(=O)c1cc2c(-c3cc(OCCN4CCCC4)c(Cl)cc3Cl)nc(N)nc2s1 (top concentration 46.0829 µM)
[1]
  viability: 59.6%
[2]
  viability: 52.4%
[3]
  area under the dose-response curve: 514
[4]
  area under the dose-response curve: 397

## CN1\C(=C(\O)C2=CC=CC=C2[S+]1([O-])=O)C(=O)NC3=NC=C(C)S3 [Meloxicam] (top concentration 46.0829 µM)
[1]
  viability: 99.9%
[2]
  viability: 52.2%
[3]
  area under the dose-response curve: 447
[4]
  area under the dose-response curve: 341

## O=C1CCC[C@@H]2[C@H]3CCCN4CCC[C@@H](CN12)[C@@H]34 [Matrine] (top concentration 46.0829 µM)
[1]
  viability: 98%
[2]
  viability: 119%
[3]
  area under the dose-response curve: 450
[4]
  area under the dose-response curve: 521

## O=C1CCCC(=O)C1C(=O)c1ccc(C(F)(F)F)cc1[N+](=O)[O-] [Nitisinone] (top concentration 46.0829 µM)
[1]
  viability: 111%
[2]
  viability: 89.1%
[3]
  area under the dose-response curve: 556
[4]
  area under the dose-response curve: 592

## COC(=O)C\1=C(C)\N\C(=C(/C1C2=CC=CC3=NON=C23)C(=O)OC(C)C)C (stereo unspecified) [Isradipine] (top concentration 46.0829 µM)
[1]
  viability: 2.69%
[2]
  viability: 0.326%
[3]
  area under the dose-response curve: 390
[4]
  area under the dose-response curve: 292

## C[C@H](NC(=O)Cc1cc(F)cc(F)c1)C(=O)N[C@@H]1C(=O)N(C)c2ccccc2-c2ccccc21 (top concentration 46.0829 µM)
[1]
  viability: 32.4%
[2]
  viability: 38.9%
[3]
  area under the dose-response curve: 423
[4]
  area under the dose-response curve: 491

## Cc1nnc(C(C)C)n1[C@@H]1C[C@H]2CC[C@@H](C1)N2CC[C@H](NC(=O)C1CCC(F)(F)CC1)c1ccccc1 [Maraviroc] (top concentration 46.0829 µM)
[1]
  viability: 3.79%
[2]
  viability: 3.08%
[3]
  area under the dose-response curve: 445
[4]
  area under the dose-response curve: 417

## Nc1ccc(C(=O)c2cc3c(ccc4ccccc43)[nH]2)cc1 [IPFK2] (top concentration 46.0829 µM)
[1]
  viability: 16.9%
[2]
  viability: 27.4%
[3]
  area under the dose-response curve: 506
[4]
  area under the dose-response curve: 431

## N[C@@H]1CONC1=O [D-Cycloserine] (top concentration 46.0829 µM)
[1]
  viability: 103%
[2]
  viability: 98.9%
[3]
  area under the dose-response curve: 584
[4]
  area under the dose-response curve: 509
